Measurements as given in ChEMBL document CHEMBL1201862, “PubChem BioAssay data set” (2004).
Activity calls are given as the source filed them.

What was measured:
Streptococcus = test: GAS UMAA2166 growth inhibition – luminescence, BacTiterGlo, counter-screen for streptokinase expression inhibitor project, dose response (AID 1915); assay type: functional, organism-based;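 also: potency for reduction of bacterial viability or growth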
[1] = Trypanosoma cruzi growth suppression in host cells – NIH3T3 host cells, beta-gal luminescence, confirmation (AID 2044); assay type: functional, cell-based;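 also: intracellular parasites grown in NIH/3T3 mouse fibroblasts as host cells; luminescent beta-galactosidase reporter signal from transgenic T. cruzi replicating inside host cells; inhibitors lower the luminescence signal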
[2] = biological target: Broad substrate specificity ATP-binding cassette transporter ABCG2 (Homo sapiens, UniProt Q9UNQ0); test: blockers of JC-1 export by ABCG2 – Ig-MXP3 cells, flow cytometry, dose response (AID 1690); assay type: functional
Streptokinase A = biological target: T1, Streptokinase A (Streptococcus pyogenes serotype M1, UniProt P10520); test: viability-normalized secreted streptokinase activity reduction – plasminogen activation absorbance, OD405, dose response (AID 1914); assay type: functional, Streptococcus pyogenes M1 GAS;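 also: secreted streptokinase activity via plasminogen activation per viability signal from cell pellet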
T1 sequence (P10520 whole entry): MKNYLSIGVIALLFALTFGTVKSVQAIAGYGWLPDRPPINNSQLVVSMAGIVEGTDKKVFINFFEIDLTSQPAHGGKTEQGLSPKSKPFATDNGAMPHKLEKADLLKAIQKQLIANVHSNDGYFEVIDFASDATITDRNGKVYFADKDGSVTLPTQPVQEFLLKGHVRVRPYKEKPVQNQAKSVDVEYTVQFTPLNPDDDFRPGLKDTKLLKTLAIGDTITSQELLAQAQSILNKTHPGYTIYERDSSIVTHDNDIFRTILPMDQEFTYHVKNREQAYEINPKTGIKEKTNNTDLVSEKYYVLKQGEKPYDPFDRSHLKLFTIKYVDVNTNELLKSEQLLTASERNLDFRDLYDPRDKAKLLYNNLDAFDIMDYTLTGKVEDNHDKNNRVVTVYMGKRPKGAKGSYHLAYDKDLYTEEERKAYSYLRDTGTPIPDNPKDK

[3] = tested on: Streptococcus sp. 'group A'; test: Streptococcus pyogenes SK(-)GAS viability under kanamycin – luminescence, BacTiterGlo, confirmation, counter-screen for streptokinase expression inhibitor project, dose response (AID 1900); assay type: functional, organism-based
[4] = NIH3T3 cell viability loss – ATP luminescence, mouse fibroblasts, counter-screen, dose response (AID 2010); assay type: functional, cell-based;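 also: cells exposed to compound for about 90 hours before reading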
[5] = blockers of HIV-1 ZM109 envelope-driven cell-cell fusion – HeLa effector, CEM target cells, luciferase, cherry-pick, dose response (AID 652058); assay type: functional, cell-based;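 also: luciferase signal from HIV-1 Env mediated cell-cell fusion of effector and target cells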
[6] = viability loss in HeLa cells – cytotoxicity control for MgcRacGAP inhibitor project, dose response (AID 624300); assay type: functional
[7] = microbe, parasite or virus in culture; assay type: functional; settings: Mycobacterium tuberculosis
[8] = viability loss in CEM21 cells – cell-based, CellTiter-Glo luminescence, cherry-picked, cytotoxicity control for viral fusion inhibitor project, dose response (AID 652042); assay type: functional;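 also: potency for signal decrease meaning cytotoxicity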
[9] = THP-1 cell cytotoxicity, dose response, cytotoxicity control for non-replicating M. tuberculosis project (AID 489025); assay type: functional
[10] = blockers of HIV-1 envelope-mediated cell-cell fusion – cherry-pick, dose response (AID 652057); assay type: functional, cell-based
[11] = off-target signal loss in HeLa-CEM21 co-culture – HeLa F-luc CTL cells, cherry-picked, counter-screen for HIV-1 Env fusion inhibitor project, dose response (AID 652040); assay type: functional, cell-based;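 also: potency for signal decrease marking cytotoxic or nonspecific inhibition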
[12] = biological target: T2, Rac GTPase-activating protein 1 (Homo sapiens, UniProt Q9H0H5); test: blockers of MgcRacGAP-driven Rac1 GTP hydrolysis – biochemical, ADP Hunter fluorescence, primary and confirmatory, confirmation (AID 624330); assay type: functional
T2 sequence (Q9H0H5 whole entry): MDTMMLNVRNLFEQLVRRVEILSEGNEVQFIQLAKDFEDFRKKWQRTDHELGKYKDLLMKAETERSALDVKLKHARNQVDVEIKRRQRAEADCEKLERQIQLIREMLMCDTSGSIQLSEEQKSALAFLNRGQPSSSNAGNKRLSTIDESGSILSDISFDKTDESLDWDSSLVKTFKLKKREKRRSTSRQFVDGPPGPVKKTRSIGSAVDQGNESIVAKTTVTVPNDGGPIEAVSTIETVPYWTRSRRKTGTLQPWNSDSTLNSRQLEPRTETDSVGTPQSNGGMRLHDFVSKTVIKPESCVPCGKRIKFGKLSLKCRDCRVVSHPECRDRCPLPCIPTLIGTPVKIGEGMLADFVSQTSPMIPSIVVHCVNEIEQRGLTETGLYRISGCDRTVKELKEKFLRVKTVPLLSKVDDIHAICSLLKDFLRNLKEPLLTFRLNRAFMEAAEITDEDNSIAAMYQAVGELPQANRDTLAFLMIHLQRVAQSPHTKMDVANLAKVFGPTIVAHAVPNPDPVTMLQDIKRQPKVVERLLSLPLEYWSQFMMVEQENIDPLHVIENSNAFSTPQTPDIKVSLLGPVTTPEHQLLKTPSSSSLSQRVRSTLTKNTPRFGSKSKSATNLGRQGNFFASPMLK

cells [13] = assay type: functional
[14] = HepG2 cell cytotoxicity, dose response, cytotoxicity control for non-replicating M. tuberculosis project (AID 489018); assay type: functional; settings: Mycobacterium tuberculosis
[15] = HIV-1 AD8 envelope cell-cell fusion blockers – cherry-pick, dose response (AID 652062); assay type: functional, cell-based;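 also: luciferase signal from cell-cell fusion driven by HIV-1 clade B AD8 Env; potency is for inhibitors of fusion seen as a drop in luminescence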
cells [16] = test: cells
[17] = biological target: Arf-GAP with SH3 domain, ANK repeat and PH domain-containing protein 1 (Homo sapiens, UniProt Q9ULH1); assay type: functional;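 also: biochemical fluorescence polarization dose–response screen measuring inhibition of ASAP1; ASAP1 GAP domain stimulating GTP hydrolysis by truncated human ARF1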
[18] = biological target: Matrix metalloproteinase-14 (Homo sapiens, UniProt P50281); test: Dose Response confirmation of uHTS hits for a small molecule inhibitors of MT1-MMP activation in a fluorescence assay set 2.; assay type: functional
H4 = test: Luminescence Cell-Based Dose Response HTS to Identify Activators of 5'UTR Stem-Loop Driven Prion Protein mRNA Translation in H4 Neuroglioblastoma Cells. [Related pubchem assays: 1829 (Project Summary), 1814 (Primary HTS)]; assay type: functional; settings: Homo sapiens
[19] = biological target: Eukaryotic translation initiation factor 4E (Mus musculus, UniProt P63073); test: blockers of eIF4G binding by eIF4E – biochemical, TR-FRET, dose response (AID 855); assay type: functional;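 also: potency for disrupting eIF4E binding to eIF4GI seen as loss of FRET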
[20] = Luminescence Cell-Based Dose Response HTS to Identify Activators of Luciferase Translation or Activity in H4 […] Cells. [Related pubchem assays: 1829 (Project Summary), 1814 (Primary HTS)]; assay type: functional
[21] = Luminescence Cell-Based Dose Confirmation HTS to Identify Activators of 5'UTR Stem-Loop Driven Alpha-Synuclein mRNA Translation in H4 Neuroglioblastoma Cells. [Related pubchem assays: 1829 (Project Summary), 1814 (Primary HTS)]; assay type: functional
[22] = biological target: Induced myeloid leukemia cell differentiation protein Mcl-1 (Homo sapiens, UniProt Q07820); assay type: functional
Induced myeloid leukemia cell differentiation protein Mcl-1, sequence (Q07820 whole entry): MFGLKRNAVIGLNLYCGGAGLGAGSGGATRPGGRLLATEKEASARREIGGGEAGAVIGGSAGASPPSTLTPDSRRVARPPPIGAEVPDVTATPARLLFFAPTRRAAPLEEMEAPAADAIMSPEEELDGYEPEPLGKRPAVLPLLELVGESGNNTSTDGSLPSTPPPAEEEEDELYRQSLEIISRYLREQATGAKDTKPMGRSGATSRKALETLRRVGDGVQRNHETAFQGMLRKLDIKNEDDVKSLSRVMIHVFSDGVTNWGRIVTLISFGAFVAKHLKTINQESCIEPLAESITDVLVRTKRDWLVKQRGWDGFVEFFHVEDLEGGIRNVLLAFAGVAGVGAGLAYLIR

Eukaryotic translation initiation factor 4E, sequence (P63073 whole entry): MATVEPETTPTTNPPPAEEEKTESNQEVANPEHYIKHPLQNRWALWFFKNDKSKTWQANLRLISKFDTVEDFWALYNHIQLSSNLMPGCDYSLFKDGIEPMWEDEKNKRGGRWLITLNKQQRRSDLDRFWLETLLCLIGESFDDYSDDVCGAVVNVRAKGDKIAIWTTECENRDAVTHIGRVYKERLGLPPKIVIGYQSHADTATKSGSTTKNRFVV
Broad substrate specificity ATP-binding cassette transporter ABCG2, sequence (Q9UNQ0 whole entry): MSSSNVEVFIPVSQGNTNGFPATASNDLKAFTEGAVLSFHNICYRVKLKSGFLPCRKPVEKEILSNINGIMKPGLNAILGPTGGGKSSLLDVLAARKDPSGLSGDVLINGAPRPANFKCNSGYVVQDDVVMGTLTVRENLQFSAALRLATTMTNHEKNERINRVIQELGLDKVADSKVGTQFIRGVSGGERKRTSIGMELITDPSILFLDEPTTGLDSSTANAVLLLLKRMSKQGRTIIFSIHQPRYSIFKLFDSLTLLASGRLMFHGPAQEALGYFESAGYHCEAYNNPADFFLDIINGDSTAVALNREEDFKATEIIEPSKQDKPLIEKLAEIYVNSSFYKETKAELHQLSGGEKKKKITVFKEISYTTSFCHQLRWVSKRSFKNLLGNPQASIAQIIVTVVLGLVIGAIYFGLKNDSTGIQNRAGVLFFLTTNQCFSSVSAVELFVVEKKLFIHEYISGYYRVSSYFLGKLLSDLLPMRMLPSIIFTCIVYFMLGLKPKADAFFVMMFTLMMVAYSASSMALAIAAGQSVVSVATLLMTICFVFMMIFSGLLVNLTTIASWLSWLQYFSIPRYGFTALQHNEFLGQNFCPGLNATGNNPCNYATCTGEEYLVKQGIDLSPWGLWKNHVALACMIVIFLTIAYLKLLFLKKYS
Arf-GAP with SH3 domain, ANK repeat and PH domain-containing protein 1, sequence (Q9ULH1 whole entry, the tested form may be a part): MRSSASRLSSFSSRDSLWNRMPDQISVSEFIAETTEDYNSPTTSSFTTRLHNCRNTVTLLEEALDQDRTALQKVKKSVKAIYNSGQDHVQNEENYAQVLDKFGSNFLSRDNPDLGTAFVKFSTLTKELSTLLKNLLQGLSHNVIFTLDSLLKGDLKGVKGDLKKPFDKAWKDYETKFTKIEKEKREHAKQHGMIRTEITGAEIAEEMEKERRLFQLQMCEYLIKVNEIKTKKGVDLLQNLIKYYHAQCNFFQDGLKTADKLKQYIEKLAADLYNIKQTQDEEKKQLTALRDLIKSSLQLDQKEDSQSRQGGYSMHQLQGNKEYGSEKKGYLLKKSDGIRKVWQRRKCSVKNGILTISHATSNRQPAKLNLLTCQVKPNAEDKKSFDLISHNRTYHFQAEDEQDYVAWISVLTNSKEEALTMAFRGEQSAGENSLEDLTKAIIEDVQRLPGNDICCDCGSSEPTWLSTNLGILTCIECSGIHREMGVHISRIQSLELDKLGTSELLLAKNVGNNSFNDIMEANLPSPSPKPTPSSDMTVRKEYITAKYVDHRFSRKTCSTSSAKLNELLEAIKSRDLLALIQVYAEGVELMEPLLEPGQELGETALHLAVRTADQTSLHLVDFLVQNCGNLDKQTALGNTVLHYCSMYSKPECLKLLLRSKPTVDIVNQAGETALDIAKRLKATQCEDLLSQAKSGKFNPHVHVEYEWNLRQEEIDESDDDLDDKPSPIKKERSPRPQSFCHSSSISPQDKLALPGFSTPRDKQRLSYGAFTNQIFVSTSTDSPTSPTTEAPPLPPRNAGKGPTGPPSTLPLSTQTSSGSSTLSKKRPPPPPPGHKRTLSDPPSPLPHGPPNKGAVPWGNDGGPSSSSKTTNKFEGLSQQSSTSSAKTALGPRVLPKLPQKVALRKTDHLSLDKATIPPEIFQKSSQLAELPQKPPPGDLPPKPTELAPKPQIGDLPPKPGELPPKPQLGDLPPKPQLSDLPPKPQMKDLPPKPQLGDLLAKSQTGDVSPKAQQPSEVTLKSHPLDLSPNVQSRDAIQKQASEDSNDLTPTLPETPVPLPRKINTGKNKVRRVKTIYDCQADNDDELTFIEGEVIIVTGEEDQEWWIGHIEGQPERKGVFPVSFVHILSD

**Q.** With `COc1cccc(-c2nc(N3CC(C)CC(C)C3)c3ccccc3n2)c1O` (centres undefined) as the compound, how does the EC50 (Streptococcus) read?
**A.** 82.5 µM (active)

**Q.** And the EC50 [1]?
**A.** 1.84 µM (active)

**Q.** And the EC50 [2]?
**A.** 1.04 µM (active)

**Q.** What about the EC50 (Streptokinase A) of the same compound?
**A.** 6.53 µM (active)

**Q.** And the EC50 [3]?
**A.** 5.15 µM (active)

**Q.** And the EC50 [4]?
**A.** > 60 µM (not active)

**Q.** Which results are given for `CC(NCCCOc1cccc2ccccc12)c1ccccc1` (centres undefined)?
**A.** AC50 [5]: 14.6 µM (active); CC50 [6]: 36.2 µM (active); CC50 [7]: 23.1 µM (active); AC50 [8]: 17.4 µM (active); CC50 [9]: 13.5 µM (active); AC50 [10]: 2.23 µM (active); AC50 [11]: 6.96 µM (active); IC50 [12]: 161 µM (active); IC50 (cells [13]): 35.9 µM (active); CC50 [14]: > 20 µM (active); AC50 [15]: 19.2 µM (active)

**Q.** What does the source list for `COc1cc2oc3ccc(C#Cc4ccccn4)cc3c(=O)c2cc1OC`?
**A.** EC50 [1]: < 0.1 µM (active); EC50 (cells [16]): 183 nM (active); IC50 [17]: 44.1 µM (inactive); EC50 [4]: > 60 µM (not active)

**Q.** Which EC50 (Streptococcus) does the source give for `COc1ccc2nc(N3C(=O)C(c4c(O)[nH]c5ccccc45)=NC3=S)sc2c1` here?
**A.** 2.41 µM (active)

**Q.** What about the IC50 [18] of the same compound?
**A.** 37.6 µM (inactive)

**Q.** And the EC50 (H4)?
**A.** 101 µM (active)

**Q.** And the IC50 [19]?
**A.** > 64 µM (inactive)

**Q.** And the EC50 [20]?
**A.** 34.5 µM (active)

**Q.** What about the EC50 [21] of the same compound?
**A.** > 120 µM (not active)

**Q.** And the EC50 [3]?
**A.** 0.744 µM (active)

**Q.** And the IC50 [22]?
**A.** > 54 µM (active)
